From patent publication US6818630B1, “Biologically active materials” (ML Laboratories PLC, priority 1999, dated 2004) come the findings set out here.

The series relates to B16F10 murine melanoma. Nature of the series: Anticancer activity and survival in C57 black mice bearing s.c. B16F10 melanoma. In kind it is in vivo, mouse. On the procedure:
Twenty four C57 black mice were injected subcutaneously (s.c.) with 10^5 B16F10 murine melanoma cells as described above and then monitored daily for well-being and the presence of palpable tumours. When the tumours were palpable, mice were randomly assigned into groups of six and their tumours measured with a micrometer gauge. Tumour size and mouse body weight is recorded. Each group is then injected intra-peritoneally with either sterile saline (negative control), free doxorubicin (5 mg kg^−1) in sterile saline or dextrin-doxorubicin (11.8 wt %, 34% succinolyation) at either 5 mg kg^−1 or 10 mg kg^−1, on days 0,1 and 2. The mice were monitored daily and tumour size and body weight recorded. Once the tumour area exceeded 2.89 cm^2 the mice were culled according to UKCCCR guidelines. Mouse survival is then expressed as % T/C (test/control saline).

With `COc1cccc2c1C(=O)c1c(O)c3c(c(O)c1C2=O)C[C@@](O)(C(=O)CO)C[C@@H]3O[C@H]1C[C@H](N)[C@H](O)[C@H](C)O1` [doxorubicin], for the setting “5 mg kg^-1 i.p.”, the anticancer activity result is “not active” and the “body weight / toxicity” value is listed as “drop in body weight consistent with toxicity”. In addition, the Toxic deaths (5 mg kg^-1 i.p. on day 0,1,2) is reported as 0/6. Moreover, the “Days survival after treatment (mean ± SD)” value (5 mg kg^-1 i.p. on day 0,1,2, N = 6) is recorded as 4.5 ± 0.5^ns days. Moreover, the “T/C (%)” value (5 mg kg^-1 i.p. on day 0,1,2, survival test/control saline) came to 103%.
